Earlier results in US20240261298A1, “METHODS OF TREATING DEPRESSION AND ANXIETY” (Woolsey Pharmaceuticals, Inc., priority 2021, published 2024).
Where a name gives a salt, the structure may show the parent alone.

Experiments:
adult mice = conditions: exposure to fasudil
[1] = 1 hydroxy (M3) metabolite, in vivo

Row | Compound | anxiety-like behaviors (adult mice) | half-life [1]
1 | O=S(=O)(c1cccc2cnccc12)N1CCCNCC1 [Fasudil, Hexahydro-1-(5-isoquinolinesulfonyl)-1H-1,4-diazepine monohydrochloride hemihydrate] | induces anxiety-like behaviors | –
2 | O=S(=O)(c1cccc2c(O)nccc12)N1CCCNCC1 [M3] | – | about 8 hours
